logP data for three compounds are collected here from ChEMBL document CHEMBL1149412, “Novel human lipoxygenase inhibitors discovered using virtual screening with homology models” (J Med Chem, 2006).

The data set can be described thus: Partition coefficient of the compound, log P. It counts as physicochemical. The settings on record: octanol/water.
By logP is commonly meant the decadic logarithm of the partition coefficient of the neutral form, usually between octanol and water. Compound `Cc1cccc(C(=N)NOC(=O)c2ccc(C)cc2Cl)c1` came in with a lipophilicity (logP) of 5.42. Under `Nc1sc2c(c1C(=O)Nc1cccc(Cl)c1)CCCC2` stands 4.64.

`CCc1cc(-c2n[nH]cc2Oc2ccccc2)c(O)cc1O` gave a lipophilicity (logP) of 3.93.
